Measured values as given in the supplement of paper PMC10790783.

System: MRC5-hT fibroblasts expressing HCMV UL38 (glucose-free medium)
Assay: rescue of cell number (AUC of dose-response) relative to untreated glucose-free control; higher = stronger protection from glucose-starvation-induced cell death
Settings: glucose: 0 (glucose-free DMEM); 96 h; dose range 0.001-20, 10-point curve µM
Procedure: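 MRC5-hT fibroblasts stably expressing HCMV UL38 were seeded in 384-well plates, serum-starved for 24 h, switched to glucose-free DMEM, and pin-transferred with a metabolism-focused compound library as 10-point dose curves (1 nM to 20 µM; n=2). Nuclei were counted by Hoechst imaging 96 h after glucose withdrawal.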

Row | Structure (SMILES) | rescue of cell number
1 | COc1ccc(C(CN(C)C)C2(O)CCCCC2)cc1 (stereo not drawn) [Venlafaxine] | 6.28%
2 | CC(=O)N1CCN(c2ccc(OCC3COC(Cn4ccnc4)(c4ccc(Cl)cc4Cl)O3)cc2)CC1 (stereo not drawn) [Ketoconazole] | -8.71%
3 | C[S+]([O-])CCCCN=C=S (stereo not drawn) [Sulforaphane] | -10.7%
4 | COc1cc(O)c(CC=C(C)C)c(O)c1C(=O)/C=C/c1ccc(O)cc1 [Xanthohumol] | 15.1%
5 | O=C(O)CN1C(=O)c2cccc3cccc(c23)C1=O [Alrestatin] | 4.91%
6 | NC(=O)c1ncn([C@@H]2O[C@H](CO)[C@@H](O)[C@H]2O)c1O [Mizoribine] | -26.6%
7 | Cc1ccccc1C(C(=O)NC1CCCCC1)N(C(=O)Cn1ccnc1C)c1cccc(F)c1 (stereo not drawn) [AGI_5198] | 48.3%
8 | OCCN1C[C@H](O)[C@@H](O)[C@H](O)[C@H]1CO [Miglitol] | -37.1%
9 | CC(c1cc2ccccc2s1)N(O)C(N)=O (stereo not drawn) [Zileuton] | -16.9%
10 | CCc1ccc(CCOc2ccc(CC3SC(=O)NC3=O)cc2)nc1 (stereo not drawn) [Pioglitazone] | 69%
11 | CN(Cc1cnc2nc(N)nc(N)c2n1)c1ccc(C(=O)N[C@@H](CCC(=O)O)C(=O)O)cc1 [Methotrexate] | -33.3%
12 | Cc1ccccc1C(C(=O)NC1CCCC1)N(C(=O)Cn1cnc2ccccc21)c1cccc(F)c1 (stereo not drawn) [ML309] | 94.6%
13 | OC(c1cc(C(F)(F)F)nc2c(C(F)(F)F)cccc12)C1CCCCN1 (stereo not drawn) [Mefloquine] | -12%
